What was measured:
Aβ38 = experiment: In vivo efficacy: brain soluble Aβ38 in non-transgenic rodents (MSD electrochemiluminescence multiplex); set-up: species or system mouse; conditions: Mus musculus, po, 4 h, dose 30 mg/kg oral dosing, brain soluble fraction, animals sacrificed after 4 h, untreated animals (Ctrl) set at 100, read-out: Aβ38 (% vs Ctrl)_Mean
Text: (§1) To determine whether acute administration of an Aβ38 increasing agents would increase Aβ38 levels in vivo, non-transgenic rodents, e.g. mice or rats were used. Animals treated with the Aβ38 increasing agents were examined and compared to those untreated or treated with vehicle and brain levels of soluble Aβ42, Aβ40, Aβ38, and Aβ37 were quantitated by MSD electrochemiluminescence detection technology. Treatment periods varied from hours (h) to days and were adjusted based on the results of the Aβ38 increase once a time course of onset of effect could be established.
(§2) A typical protocol for measuring Aβ38 increase in vivo is shown but it is only one of many variations that could be used to optimize the levels of detectable Aβ. For example, Aβ38 increasing agents were formulated in 20% of Captisol® (a sulfobutyl ether of β-cyclodextrin) in water or 20% hydroxypropyl βcyclodextrin. The Aβ38 increasing agents were administered as a single oral dose or by any acceptable route of administration to overnight fasted animals. After 4 h, the animals were sacrificed and Aβ38 levels were analysed.
(§3) Blood was collected by decapitation and exsanguinations in EDTA-treated collection tubes. Blood was centrifuged at 1900 g for 10 minutes (min) at 4° C. and the plasma recovered and flash frozen for later analysis. The brain was removed from the cranium and hindbrain. The cerebellum was removed and the left and right hemisphere were separated. The left hemisphere was stored at −18° C. for quantitative analysis of test compound levels. The right hemisphere was rinsed with phosphate-buffered saline (PBS) buffer and immediately frozen on dry ice and stored at −80° C. until homogenization for biochemical assays.
(§4) Mouse brains from non-transgenic animals were resuspended in 8 volumes of 0.4% DEA (diethylamine)/50 mM NaCl containing protease inhibitors (Roche-11873580001 or 04693159001) per gram of tissue, e.g. for 0.158 g brain, add 1.264 ml of 0.4% DEA. All samples were homogenized in the FastPrep-24 system (MP Biomedicals) using lysing matrix D (MPBio #6913-100) at 6 m/s for 20 seconds. Homogenates were centrifuged at 20800×g for 5 min and supernatants collected. Supernatants were centrifuged at 221.300×g for 50 min. The resulting high speed supernatants were then transferred to fresh eppendorf tubes. Nine parts of supernatant were neutralized with 1 part 0.5 M Tris-HCl pH 6.8 and used to quantify Aβ.
(§5) To quantify the amount of Aβ42, Aβ40, Aβ38, and Aβ37 in the soluble fraction of the brain homogenates, simultaneous specific detection of Aβ42, Aβ40, Aβ38, and Aβ37 was performed using MSD's electro-chemiluminescence multiplex detection technology. In this assay purified monoclonal antibodies specific for Abeta37 (JRD/Aβ37/3), Abeta38 (J&JPRD/Aβ38/5), Abeta40 (JRF/cAβ40/28), and Abeta42 (JRF/cAβ42/26) were coated on MSD 4-plex plates. Briefly, the standards (a dilution of synthetic Aβ42, Aβ40, Aβ38, and Aβ37) were prepared in 1.5 ml Eppendorf tube in Ultraculture, with final concentrations ranging from 10000 to 0.3 pg/m. The samples and standards were co-incubated with Sulfo-tag labelled JRF/rAβ/2 antibody to the N-terminus of Aβ as detector antibody. 50 μl of conjugate/sample or conjugate/standards mixtures were then added to the antibody-coated plate. The plate was allowed to incubate overnight at 4° C. in order to allow formation of the antibody-amyloid complex. Following this incubation and subsequent wash steps the assay was finished by adding read buffer according to the manufacturer's instructions (MesoScale Discovery, Gaitherburg, Md.).
(§6) The SULFO-TAG emits light upon electrochemical stimulation initiated at the electrode. MSD Sector instrument SI6000 was used for signal read-out.
In this model a Aβ38 increase compared to untreated animals would be advantageous, in particular a Aβ38 increase with at least 10%, more in particular a Aβ38 increase with at least 20%. […]

Aβ40 = experiment: In vivo efficacy: brain soluble Aβ40 in non-transgenic rodents (MSD electrochemiluminescence multiplex); set-up: species or system mouse; conditions: Mus musculus, po, 4 h, dose 30 mg/kg oral dosing, brain soluble fraction, animals sacrificed after 4 h, untreated animals (Ctrl) set at 100, read-out: Aβ40 (% vs Ctrl)_Mean
Text: as §1, with “Aβ42 lowering agent” for “Aβ38 increasing agents”, “reduce Aβ42” for “increase Aβ38”, “Meso Scale Discovery's (MSD)” for “MSD”, “Aβ42 lowering” for “Aβ38 increase”
as §2, with “measuring Aβ42 lowering” for “measuring Aβ38 increase”, “example, Aβ42 lowering compounds” for “example, Aβ38 increasing agents”, “(a sulfo-butyl” for “(a sulfobutyl”, “The Aβ42 lowering” for “The Aβ38 increasing”, “and Aβ42” for “and Aβ38”
as §3, §4
as §5, with “(Meso Scale” for “(MesoScale”
as §6
The results are shown in Table 5 (dose 30 mg/kg oral dosing) (value for untreated animals as control (Ctrl) was set at 100): […]

| SMILES | response vs control in vivo at 30 mg/kg (Aβ38) [%] | response vs control in vivo at 30 mg/kg (Aβ40) [%] |
| --- | --- | --- |
| Cc1cn(-c2ccc3n(c2=O)C[C@@H](C)N(Cc2cc(OCC(F)(F)F)cc(C(F)(F)F)c2)C3=O)cn1 [compound 166] | 127 | 107 |
| Cc1cn(-c2ccc3n(c2=O)C[C@@H](C)N(Cc2c[nH]c4cc(F)c(Cl)cc24)C3=O)cn1 [compound 195] | 123 | 135 |

— patent US20150141411A1, “SUBSTITUTED 3,4-DIHYDRO-2H-PYRIDO[1,2-A]PYRAZINE-1,6-DIONE DERIVATIVES USEFUL FOR THE TREATMENT OF (INTER ALIA) ALZHEIMER'S DISEASE” (Janssen Pharmaceuticals, Inc., priority 2012, published 2015)
